This is an account of results in ChEMBL document CHEMBL3739322, “Novel oxime-bearing coumarin derivatives act as potent Nrf2/ARE activators in vitro and in mouse model” (Eur J Med Chem, 2015).

Series [1] in a line: Cytotoxicity against human HSC3 cells after 24 hrs by MTT assay. The series is classed as cell-based. The following applies: hsc-3, 24 h. (In general: Tetrazolium dyes change colour on reduction, which living cells bring about.)
The target of series [2] is T1, Nuclear factor erythroid 2-related factor 2 (Homo sapiens) (UniProt Q16236).
T1 sequence (whole entry): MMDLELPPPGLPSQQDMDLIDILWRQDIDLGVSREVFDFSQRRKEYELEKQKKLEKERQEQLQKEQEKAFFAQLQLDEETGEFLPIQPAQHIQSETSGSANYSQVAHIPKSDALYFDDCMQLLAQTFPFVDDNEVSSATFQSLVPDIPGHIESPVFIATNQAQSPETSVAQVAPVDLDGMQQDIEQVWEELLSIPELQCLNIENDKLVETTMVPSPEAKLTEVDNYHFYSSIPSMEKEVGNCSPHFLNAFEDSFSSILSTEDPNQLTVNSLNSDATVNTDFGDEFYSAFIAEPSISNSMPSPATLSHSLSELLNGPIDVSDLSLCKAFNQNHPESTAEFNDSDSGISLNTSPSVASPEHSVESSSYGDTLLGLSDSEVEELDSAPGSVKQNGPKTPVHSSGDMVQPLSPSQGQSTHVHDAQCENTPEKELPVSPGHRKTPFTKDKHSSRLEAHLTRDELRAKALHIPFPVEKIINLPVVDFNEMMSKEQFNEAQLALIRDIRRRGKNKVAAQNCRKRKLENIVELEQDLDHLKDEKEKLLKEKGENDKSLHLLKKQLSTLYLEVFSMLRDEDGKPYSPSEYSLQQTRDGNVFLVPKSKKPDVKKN
In words: Activation of Nrf2 in human HSC3-ARE9 cells assessed as increase of ARE-mediated luciferase expression at 50 uM after 24 hrs relative to control. The series is classed as cell-based.

Series [3] in a line: Antioxidant activity assessed as DPPH radical scavenging activity. The class given is physicochemical. (DPPH is a stable violet radical that fades when it is reduced.)
The target of series [4] is T1, Nuclear factor erythroid 2-related factor 2 (Homo sapiens). In words: Activation of Nrf2 in human HSC3-ARE9 cells assessed as increase of ARE-mediated luciferase expression after 24 hrs. The class given is cell-based.
Series [5] has the same target. The experiment in a line: Activation of Nrf2 in human HSC3-ARE9 cells assessed as increase of ARE-mediated GCLC protein expression after 24 hrs by Western blot analysis. The class given is cell-based. A general note: In western blotting, separated proteins are transferred to a membrane and probed.
For series [6] the target is unchanged. The experiment in a line: Activation of Nrf2 in human HSC3-ARE9 cells assessed as increase of ARE-mediated AKR1C1 mRNA expression at 50 uM after 24 hrs by RT-PCR analysis relative to control. The class given is cell-based.
In series [7] the test system is Mus musculus. In words: Induction of Nrf2-mediated cytoprotective activity in C57BL/6J mouse assessed as increase of GR level in liver at 50 mg/kg, po qd for 7 days measured after 24 hrs of last dose. The series is classed as functional, organism-based.
Series [8] deals with T1, Nuclear factor erythroid 2-related factor 2 (Homo sapiens). In words: Activation of Nrf2 in human HSC3-ARE9 cells assessed as increase of protein level in nucleus after 24 hrs by Western blot analysis. The class given is cell-based.
The target is the same in series [9]. The experiment in a line: Increase of Nrf2 phosphorylation at ser-40 in human HSC3 cells at 50 uM after 24 hrs by Western blot analysis relative to control. The series is classed as cell-based. To be noted: HSC-3.
Series [10] has the same target. In words: Activation of Nrf2 in human HSC3-ARE9 cells assessed as increase of ARE-mediated AKR1C2 mRNA expression at 50 uM after 24 hrs by RT-PCR analysis relative to control. The series is classed as cell-based.
The target is the same in series [11]. In words: Activation of Nrf2 in human HSC3-ARE9 cells assessed as increase of ARE-mediated AKR1C1 protein expression after 24 hrs by Western blot analysis. The class given is cell-based.
Series [12] has the same target. In words: Activation of Nrf2 in human HSC3-ARE9 cells assessed as increase of ARE-mediated GR mRNA expression at 50 uM after 24 hrs by RT-PCR analysis relative to control. The class given is cell-based.
Series [13] relates to Mus musculus. The experiment in a line: Induction of Nrf2-mediated cytoprotective activity in C57BL/6J mouse assessed as increase of AKR1C1 level in liver at 50 mg/kg, po qd for 7 days measured after 24 hrs of last dose. The series is classed as functional, organism-based.
Series [14] has as its target T1, Nuclear factor erythroid 2-related factor 2 (Homo sapiens). The experiment in a line: Activation of Nrf2 in human HSC3-ARE9 cells assessed as increase of ARE-mediated Prx1 protein expression after 24 hrs by Western blot analysis. The series is classed as cell-based.
The target is the same in series [15]. The experiment in a line: Activation of Nrf2 in human HSC3-ARE9 cells assessed as increase of ARE-mediated luciferase expression at 50 uM after 24 hrs in presence of MEK inhibitor U0126. The series is classed as cell-based.
Series [16] shares this target. The experiment in a line: Activation of Nrf2 in human HSC3-ARE9 cells assessed as increase of ARE-mediated luciferase expression at 50 uM after 24 hrs in presence of PI3K inhibitor LY294002. The series is classed as cell-based.
Series [17] has the same target. The experiment in a line: Activation of Nrf2 in human HSC3-ARE9 cells assessed as increase of ARE-mediated NQO1 mRNA expression at 50 uM after 24 hrs by RT-PCR analysis relative to control. The class given is cell-based.
Series [18] deals with Mus musculus. The experiment in a line: Induction of Nrf2-mediated cytoprotective activity in C57BL/6J mouse assessed as increase of HO-1 level in liver at 50 mg/kg, po qd for 7 days measured after 24 hrs of last dose. The class given is functional, organism-based.
Series [19] deals with T1, Nuclear factor erythroid 2-related factor 2 (Homo sapiens). The experiment in a line: Activation of Nrf2 in human HSC3-ARE9 cells assessed as increase of ARE-mediated luciferase expression at 50 uM after 24 hrs in presence of PKC inhibitor Ro-31-8220. The series is classed as cell-based.
For series [20] the target is unchanged. The experiment in a line: Activation of Nrf2 in human HSC3-ARE9 cells assessed as increase of ARE-mediated luciferase expression at 50 uM after 24 hrs in presence of p38 inhibitor SB203580. The series is classed as cell-based.
A further series deals with HSC-3. In words: Inhibition of t-BOOH-induced oxidative stress in human HSC3 cells assessed as intracellular ROS level at 50 uM after 24 hrs by DCF fluorescence assay. The series is classed as functional, cell-based.
The test system of series [21] is Mus musculus. The experiment in a line: Toxicity in C57BL/6J mouse assessed as change in body weight at 50 mg/kg, po qd for 7 days. The following applies: in vivo, 168 h. The series is classed as organism-based.
The target in series [22] is T1, Nuclear factor erythroid 2-related factor 2 (Homo sapiens). The experiment in a line: Activation of Nrf2 in human HSC3-ARE9 cells assessed as increase of ARE-mediated Prx1 mRNA expression at 50 uM after 24 hrs by RT-PCR analysis relative to control. The class given is cell-based.
Series [23] shares this target. In words: Activation of Nrf2 in human HSC3-ARE9 cells assessed as increase of ARE-mediated GCLC mRNA expression at 50 uM after 24 hrs by RT-PCR analysis relative to control. The class given is cell-based.
Series [24] shares this target. The experiment in a line: Activation of Nrf2 in human HSC3-ARE9 cells assessed as increase of ARE-mediated ABCC3 mRNA expression at 50 uM after 24 hrs by RT-PCR analysis relative to control. The class given is cell-based.
Series [25] has the same target. In words: Activation of Nrf2 in human HSC3-ARE9 cells assessed as increase of ARE-mediated AKR1C3 mRNA expression at 50 uM after 24 hrs by RT-PCR analysis relative to control. The series is classed as cell-based.

For orientation: EC50 means the concentration that produces a half-maximal response.

Calls of active or inactive are those of the source. No cut-off for these calls is given here.

As for `O=c1ccc2cc(OC/C(=N\O)c3ccccc3)ccc2o1`, the Activity entry in [1] was “Non-toxic”; in [4], “Dose-dependent effect”. Besides, in series [2], the fold change (FC) turned out to be 3.02. The EC50 in [3] is more than 400 µM.
For the compound `O=c1oc2ccccc2cc1OC/C(=N\O)c1ccccc1`, the Activity entry in series [5] was “Dose-dependent effect”; in series [1] it was “Non-toxic”; in [8] it was “Dose-dependent effect”; in series [9], 126%; in series [11], “Dose-dependent effect”; in series [4] it was “Dose-dependent effect”. In addition, the Activity result in series [14] was “Dose-dependent effect”; in the series on Mus musculus [21] it was “Non-toxic”. Also, the fold change (FC) in [6] was 1.5; in series [2], 3.45; in series [10], 1.4; in series [12] it was 1.3; in [17], 1.2; in series [22], 1.6. The fold change (FC) was 1.6 in [23], 1.3 in [24] and 1.3 in [25]. Also, the EC50 in [3] is more than 400 µM. The result (in the series on Mus musculus [7]; in the series with Mus musculus [13]; in series [15]; in the series with Mus musculus [18]; in series [20]) was Active. Besides, the result in series [16] and in [19] was inactive. In the series on HSC-3, the inhibition result was “Active”.
Consider `CC(C)(C)c1cc(O)ccc1O` [E319], for which the fold change (FC) in [6] is 2.3; in [2] it was 2.01; in series [22] it was 1.1; in [23], 2. The EC50 in series [3] is 57.5 µM.
